The results in this text go back to ChEMBL document CHEMBL5625251, “Anti-influenza virus activities and mechanism of antrafenine analogs” (Eur J Med Chem, 2023).

Structures are written as SMILES. Activity calls are given as the source filed them. No cut-off for these calls is given here.

The nature of data set [1]: Cytotoxicity against MDCK cells assessed as reduction in cell viability incubated for 48 hrs by MTT assay. It counts as toxicity, cell-based, Canis lupus familiaris. The note with it: dog.
Data set [2] relates to Influenza A virus. In words: Antiviral activity against Influenza A virus A/WSN/33(H1N1) infected in MDCK cells assessed as inhibition of viral growth at 100 uM pre-infected for 1 hr followed by compound addition and measured 24 hrs post infection by plaque assay relative to control. The note with it: time 23 hrs. In kind it is functional.
Data set [3] relates to Influenza A virus. Nature of the data set: Antiviral activity against Influenza A virus A/WSN/33(H1N1) infected in MDCK cells assessed as inhibition of viral growth 12.5 uM pre-infected for 1 hr followed by compound addition and measured 24 hrs post infection by plaque assay relative to control. In kind it is functional. Conditions: for inhibition: time 23.0 hrs; for inhibition at 12.5 µM: time 23 hrs.

The subject of data set [4] is Influenza A virus. In words: Antiviral activity against Influenza A virus A/WSN/33(H1N1) infected in MDCK cells assessed as reduction in virus-induced cytopathic effect at 100 uM pre-infected with cells for 1 hrs followed by compound addition and measured after 2 days by MTT assay. The note with it: time 2.0 day. It counts as functional, organism-based.
For another data set, the system named is MDCK. Nature of the data set: Cytotoxicity against MDCK cells assessed as reduction in cell viability at 12.5 uM incubated for 48 hrs by MTT assay. It counts as toxicity, cell-based, Canis lupus familiaris. The note with it: dog.
The test system of data set [5] is Influenza A virus. Nature of the data set: Antiviral activity against Influenza A virus A/WSN/33(H1N1) infected in MDCK cells assessed as inhibition of viral growth at 6.25 uM pre-infected for 1 hr followed by compound addition and measured 24 hrs post infection by plaque assay relative to control. Conditions: time 23 hrs. In kind it is functional.
The subject of data set [6] is Influenza A virus. Nature of the data set: Antiviral activity against Influenza A virus A/WSN/33(H1N1) infected in MDCK cells assessed as inhibition of viral growth at 50 uM pre-infected for 1 hr followed by compound addition and measured 24 hrs post infection by plaque assay relative to control. It counts as functional. The note with it: time 23 hrs.
Data set [7] has as its system Influenza A virus. In words: Antiviral activity against Influenza A virus A/WSN/33(H1N1) infected in MDCK cells assessed as inhibition of viral growth pre-infected for 1 hr followed by compound addition and measured 24 hrs post infection by plaque assay. It counts as functional, organism-based.

In the case of `O=C(NCCCN1CCOCC1)c1ccccc1Nc1ccnc2cc(C(F)(F)F)ccc12`, the CC50 at 48 h in data set [1] is over 100 µM. Moreover, the inhibition at 100 µM in the data set on Influenza A virus [2] came to 99.9%.
The corresponding values for `NC(=O)c1ccccc1Nc1ccnc2ccc(Cl)cc12` are over 100 µM and 22.5%.
Turning to `O=C(NCC(=O)N1CCOCC1)c1ccccc1Nc1ccnc2ccc(Cl)cc12`, in data set [1], the CC50 at 48 h was over 100 µM. Also, the inhibition at 100 µM with Influenza A virus [2] came out at 65.4%.
Turning to `O=C(NCCN1CCN(c2ccccc2)CC1)c1ccccc1Nc1ccnc2ccc(Cl)cc12`, the half-maximal cytotoxic concentration (CC50) at 48 h in data set [1] was over 100 µM. Further, the inhibition result in the data set with Influenza A virus [3] is “inactive”. Also, the outcome in the data set on Influenza A virus [4] was Active.
For `Cc1ccccc1N1CCN(CCNC(=O)c2ccccc2Nc2ccnc3ccc(Cl)cc23)CC1`, the Activity result in the data set with MDCK is given as “Toxic”.
Consider `O=C(Nc1ccc(Br)cc1)c1ccccc1Nc1ccnc2cc(C(F)(F)F)ccc12`, for which the inhibition at 6.25 µM in the data set on Influenza A virus [5] worked out at 74.5%. The Activity result in the data set with MDCK was “Toxic”.
Regarding `O=C(Nc1cccc([N+](=O)[O-])c1)c1ccccc1Nc1ccnc2ccc(Cl)cc12`, the inhibition at 6.25 µM in the data set on Influenza A virus [5] is 21.4%. Further, the Activity result in the data set on MDCK was “Toxic”.
Take `O=C(NC12CC3CC(CC(C3)C1)C2)c1ccccc1Nc1ccnc2ccc(Cl)cc12`: the Activity result with MDCK is listed as “Toxic”.
Consider `O=C(NC1CCCCC1)c1ccccc1Nc1ccnc2cc(C(F)(F)F)ccc12`, for which the 50% cytotoxic concentration (CC50) at 48 h in data set [1] was over 50 µM. The inhibition at 12.5 µM in the data set with Influenza A virus [3] was found to be 41.3%.
As for `O=C(NCCN1CCN(c2cccc(Cl)c2Cl)CC1)c1ccccc1Nc1ccnc2ccc(Cl)cc12`, in data set [1], the CC50 at 48 h was over 50 µM.
The same measure, in the same setting: to `O=C(c1ccccc1Nc1ccnc2cc(C(F)(F)F)ccc12)N1CCOCC1` belongs over 100 µM; to `Cc1ccc(N2CCN(CCNC(=O)c3ccccc3Nc3ccnc4cc(C(F)(F)F)ccc34)CC2)c(C)c1`, over 100 µM.
Turning to `CCN(CC)CCCNC(=O)c1ccccc1Nc1ccnc2ccc(Cl)cc12`, the CC50 at 48 h in data set [1] was 38 µM. In the data set with Influenza A virus [5], the inhibition at 6.25 µM was 15.3%.
For `O=C(NCC(=O)N1CCN(c2cccc(Cl)c2Cl)CC1)c1ccccc1Nc1ccnc2ccc(Cl)cc12`, the CC50 at 48 h in data set [1] was over 50 µM. For the same compound, in the data set with Influenza A virus [3], the inhibition at 12.5 µM was 24%.
Consider `O=C(CNC(=O)c1ccccc1Nc1ccnc2ccc(Cl)cc12)NCc1ccccc1`, for which, in data set [1], the CC50 at 48 h was over 100 µM. Also, the result with Influenza A virus [4] was Active.
In the case of `O=C(CNC(=O)c1ccccc1Nc1ccnc2ccc(Cl)cc12)NC1CCCCC1`, in data set [1], the CC50 at 48 h amounted to 21.6 µM. The inhibition at 12.5 µM with Influenza A virus [3] amounted to 44.4%.
As to `O=C(NCCCO)c1ccccc1Nc1ccnc2ccc(Cl)cc12`, the CC50 at 48 h in data set [1] is over 100 µM. In addition, in the data set with Influenza A virus [2], the inhibition at 100 µM was 69.5%.
As to `O=C(OCCN1CCN(c2cccc(C(F)(F)F)c2)CC1)c1ccccc1Nc1ccnc2cc(C(F)(F)F)ccc12` [ANTRAFENINE], the CC50 at 48 h in data set [1] is over 100 µM.
Still for that read-out and setting: next, `O=C(NCCN1CCN(c2ccccc2OC(F)(F)F)CC1)c1ccccc1Nc1ccnc2cc(C(F)(F)F)ccc12`: over 100 µM; `O=C(CNC(=O)c1ccccc1Nc1ccnc2cc(C(F)(F)F)ccc12)NCc1ccccc1`: over 100 µM.
Still for that read-out and setting: next, `O=C(Nc1ccccc1)c1ccccc1Nc1ccnc2cc(C(F)(F)F)ccc12`: over 100 µM.
`O=C(NCCN1CCN(c2ccccc2Cl)CC1)c1ccccc1Nc1ccnc2ccc(Cl)cc12`: the Activity entry in the data set on MDCK was “Toxic”.
`CN(C)CCNC(=O)c1ccccc1Nc1ccnc2cc(C(F)(F)F)ccc12`: the CC50 at 48 h in data set [1] was 17.4 µM. The inhibition result in the data set on Influenza A virus [3] is “inactive”.
Consider `Cc1ccccc1N1CCN(C(=O)CNC(=O)c2ccccc2Nc2ccnc3ccc(Cl)cc23)CC1`, for which the CC50 at 48 h in data set [1] is over 100 µM. Besides, the inhibition at 12.5 µM in the data set on Influenza A virus [3] turned out to be 55.8%.
Turning to `O=C(NCCN1CCN(c2ccccc2OC(F)(F)F)CC1)c1ccccc1Nc1ccnc2ccc(Cl)cc12`, the CC50 at 48 h in data set [1] is over 100 µM. In addition, the inhibition at 50 µM in the data set on Influenza A virus [6] turned out to be 50%.
Regarding `NC(=O)c1ccccc1Nc1ccnc2cc(C(F)(F)F)ccc12`, the CC50 at 48 h in data set [1] is over 100 µM.
For the compound `O=C(NCCCO)c1ccccc1Nc1ccnc2cc(C(F)(F)F)ccc12`, in data set [1], the CC50 at 48 h was over 100 µM. Besides, in the data set with Influenza A virus [2], the inhibition at 100 µM came to 62.6%.
With `CC(C)NC(=O)c1ccccc1Nc1ccnc2cc(C(F)(F)F)ccc12`, the CC50 at 48 h in data set [1] is over 100 µM.
Still for that read-out and setting: next, `O=C(NCc1ccccc1)c1ccccc1Nc1ccnc2ccc(Cl)cc12`: 45.3 µM.
As to `O=C(CNC(=O)c1ccccc1Nc1ccnc2cc(C(F)(F)F)ccc12)NCCCN1CCOCC1`, in data set [1], the CC50 at 48 h was over 50 µM. Besides, in the data set with Influenza A virus [6], the inhibition at 50 µM worked out at 94.9%.
`O=C(NCC(=O)N1CCOCC1)c1ccccc1Nc1ccnc2cc(C(F)(F)F)ccc12`: the CC50 at 48 h in data set [1] was over 100 µM. Further, the inhibition at 100 µM with Influenza A virus [2] was determined as 60.6%.
Consider `CCC(CC)O[C@@H]1C=C(C(=O)O)C[C@H](N)[C@H]1NC(C)=O` [OSELTAMIVIR CARBOXYLATE], for which the IC50 in the data set with Influenza A virus [7] amounted to 9 pM.
As for `O=C(O)c1ccccc1Nc1ccnc2ccc(Cl)cc12`, the CC50 at 48 h in data set [1] was over 100 µM. Further, the inhibition at 50 µM in the data set on Influenza A virus [6] came out at 3.5%.
As to `CCOC(=O)c1ccccc1Nc1ccnc2cc(C(F)(F)F)ccc12`, the CC50 at 48 h in data set [1] was over 100 µM. The inhibition at 100 µM in the data set with Influenza A virus [2] turned out to be 9.09%.
The corresponding values for `COC(=O)c1ccccc1Nc1ccnc2cc(C(F)(F)F)ccc12` are over 100 µM and 17.9%.
Take `CNC(=O)c1ccccc1Nc1ccnc2cc(C(F)(F)F)ccc12`: the CC50 at 48 h in data set [1] is over 100 µM. The inhibition at 100 µM with Influenza A virus [2] turned out to be 20%.
Consider `Cc1ccc(N2CCN(CCNC(=O)c3ccccc3Nc3ccnc4ccc(Cl)cc34)CC2)c(C)c1`, for which the CC50 at 48 h in data set [1] is 22.9 µM.
As for `O=C(NC12CC3CC(CC(C3)C1)C2)c1ccccc1Nc1ccnc2cc(C(F)(F)F)ccc12`, the Activity entry in the data set with MDCK is “Toxic”.
For `CN(C)CCNC(=O)c1ccccc1Nc1ccnc2ccc(Cl)cc12`, in data set [1], the CC50 at 48 h came out at 19.9 µM.
Regarding `O=C(CNC(=O)c1ccccc1Nc1ccnc2cc(C(F)(F)F)ccc12)NC1CCCCC1`, the CC50 at 48 h in data set [1] is over 100 µM. Also, the inhibition at 50 µM with Influenza A virus [6] was 69.3%.
